Experiment [1] has as its target T1, Protein cereblon/E3 ubiquitin-protein ligase XIAP (Homo sapiens) (UniProt P98170+Q96SW2). The experiment can be described thus: Binding affinity to CRBN/XIAP in human HEK293T cells assessed as ternary complex formation at 1 uM measured after 6 hrs by immunoprecipitation analysis. The experiment is classed as cell-based.
The test system of another experiment is MDA-MB-157. The experiment can be described thus: Inhibition of TNFalpha-induced cell invasion in human MDA-MB-157 cells at 0.1 uM measured after 24 hrs in presence of TNFalpha by transwell assay. It is filed as functional, cell-based.
The target in experiment [2] is T1, Protein cereblon/E3 ubiquitin-protein ligase XIAP (Homo sapiens). Nature of the experiment: PROTAC activity at CRBN/XIAP in human MCF7 cells assessed as induction of XIAP degradation at 0.1 uM measured within 1 hr by western blot analysis. The experiment is classed as cell-based. On the technique in general: In western blotting, separated proteins are transferred to a membrane and probed.

For experiment [3] the target is unchanged. The experiment can be described thus: PROTAC activity at CRBN/XIAP in human MCF7 cells assessed as induction of XIAP degradation at 0.1 to 10 uM measured after 18 hrs by western blot analysis. The conditions noted are these: dose 0.1-10 µM. It is filed as cell-based.
Experiment [4] has as its target Baculoviral IAP repeat-containing protein 2 (Homo sapiens) (UniProt Q13490). The experiment can be described thus: Induction of cIAP1 degradation in human MCF7 cells transfected with CRBN siRNA at 0.01 to 1 uM measured after 18 hrs by western blot analysis. The experiment is classed as cell-based. The settings on record: dose 0.01-1 µM.
Experiment [5] concerns the target T1, Protein cereblon/E3 ubiquitin-protein ligase XIAP (Homo sapiens). Nature of the experiment: PROTAC activity at CRBN/XIAP in human MCF7 cells assessed as induction of XIAP degradation at 1 uM measured after 18 hrs by western blot analysis. The experiment is classed as cell-based.
In a further experiment the test system is MDA-MB-231. The experiment can be described thus: Inhibition of TNFalpha-induced cell migration in human MDA-MB-231 cells at 0.1 uM measured after 24 hrs in presence of TNFalpha by transwell assay. The experiment is classed as functional, cell-based.
In experiment [6] the target is T2, Protein cereblon/Baculoviral IAP repeat-containing protein 3 (Homo sapiens) (UniProt Q13489+Q96SW2). Nature of the experiment: PROTAC activity at CRBN/cIAP2 in human MCF7 cells assessed as induction of cIAP2 degradation at 0.1 uM measured after 18 hrs by western blot analysis. It is filed as cell-based.
The target in experiment [7] is T1, Protein cereblon/E3 ubiquitin-protein ligase XIAP (Homo sapiens). The experiment can be described thus: PROTAC activity at CRBN/XIAP in human MCF7 cells assessed as protein abundance at 1 uM measured after 4 hrs by TMT-labeling based LC-MS/MS analysis. It is filed as cell-based.
In experiment [8] the test system is MCF7. The experiment can be described thus: Inhibition of TNFalpha-induced E-cadherin protein expression in human MCF7 cells by western blot analysis. The experiment is classed as functional, cell-based.
Experiment [9] concerns MCF7. The experiment can be described thus: Induction of apoptosis in human MCF7 cells assessed as increase in total apoptotic cells at 1 uM measured after 48 hrs by AnnexinV-FITC/PI staining based flow cytometry. It is filed as functional. A general note: In flow cytometry, cells or beads pass a laser one at a time.
In experiment [10] the test system is MCF7. Nature of the experiment: Cytotoxicity against human MCF7 cells assessed as reduction in cell viability at 1 uM measured after 24 hrs in presence of TNF-alpha by CellTiter-Glo luminescent assay. It is filed as functional, cell-based. (Cellular ATP, detected with luciferase, serves as a proxy for viable cell number.)
In experiment [11] the test system is MCF7. The experiment can be described thus: Inhibition of TNFalpha-induced cytokine mRNA expression in human MCF7 cells assessed as decrease in TNF-alpha mRNA level by quantitative real-time PCR analysis. The experiment is classed as functional, cell-based.
For experiment [12], the target named is Protein cereblon-IAP (Homo sapiens) (UniProt P98170+Q13489+Q13490+Q96SW2). The experiment can be described thus: PROTAC activity at CRBN/IAP in human MCF7 cells assessed as inhibition of TNFalpha-induced NFkappaB activation by measuring decrease in IkBalpha phosphorylation at 0.1 uM pretreated for 2 hrs followed by stimulation with TNF-alpha for 3 mins by western blot analysis. It is filed as cell-based. The conditions noted are these: time 123.0 min.

Experiment [13] concerns the target T2, Protein cereblon/Baculoviral IAP repeat-containing protein 3 (Homo sapiens). The experiment can be described thus: PROTAC activity at CRBN/cIAP2 in human MCF7 cells at 1 uM measured after 4 hrs by TMT-labeling based LC-MS/MS analysis. It is filed as cell-based.

The structures appear in SMILES notation. The source made the active and inactive calls. The calls are words filed in the database; no cut-off is given here. Some results are limits rather than exact numbers.

T1 sequence (P98170 whole entry, looked up): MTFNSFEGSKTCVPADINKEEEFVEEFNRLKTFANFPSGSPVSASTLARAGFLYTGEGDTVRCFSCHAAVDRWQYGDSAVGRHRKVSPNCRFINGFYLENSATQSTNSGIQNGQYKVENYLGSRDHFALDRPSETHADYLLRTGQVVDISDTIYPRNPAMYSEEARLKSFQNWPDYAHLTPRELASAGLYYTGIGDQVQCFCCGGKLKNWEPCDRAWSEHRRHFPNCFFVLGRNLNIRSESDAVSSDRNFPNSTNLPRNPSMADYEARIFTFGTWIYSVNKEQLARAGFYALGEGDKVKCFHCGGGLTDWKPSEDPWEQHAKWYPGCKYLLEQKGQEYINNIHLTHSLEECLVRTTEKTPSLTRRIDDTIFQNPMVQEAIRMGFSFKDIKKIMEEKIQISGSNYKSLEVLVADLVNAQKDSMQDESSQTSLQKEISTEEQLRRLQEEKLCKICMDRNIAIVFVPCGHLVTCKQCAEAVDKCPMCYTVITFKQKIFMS
T1 sequence (Q96SW2 whole entry, looked up): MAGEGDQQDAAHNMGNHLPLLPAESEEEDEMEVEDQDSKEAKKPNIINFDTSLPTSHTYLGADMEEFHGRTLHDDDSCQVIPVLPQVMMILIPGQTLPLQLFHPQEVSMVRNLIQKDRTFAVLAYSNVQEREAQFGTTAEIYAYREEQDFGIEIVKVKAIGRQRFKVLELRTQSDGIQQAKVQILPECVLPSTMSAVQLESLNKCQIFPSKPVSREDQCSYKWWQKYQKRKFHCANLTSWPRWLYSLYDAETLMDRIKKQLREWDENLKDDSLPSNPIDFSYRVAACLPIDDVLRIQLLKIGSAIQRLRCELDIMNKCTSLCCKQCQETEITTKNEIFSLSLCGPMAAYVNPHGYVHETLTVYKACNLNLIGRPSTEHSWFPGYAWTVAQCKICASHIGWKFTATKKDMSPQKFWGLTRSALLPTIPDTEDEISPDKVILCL
T2 sequence (Q13489 whole entry, looked up): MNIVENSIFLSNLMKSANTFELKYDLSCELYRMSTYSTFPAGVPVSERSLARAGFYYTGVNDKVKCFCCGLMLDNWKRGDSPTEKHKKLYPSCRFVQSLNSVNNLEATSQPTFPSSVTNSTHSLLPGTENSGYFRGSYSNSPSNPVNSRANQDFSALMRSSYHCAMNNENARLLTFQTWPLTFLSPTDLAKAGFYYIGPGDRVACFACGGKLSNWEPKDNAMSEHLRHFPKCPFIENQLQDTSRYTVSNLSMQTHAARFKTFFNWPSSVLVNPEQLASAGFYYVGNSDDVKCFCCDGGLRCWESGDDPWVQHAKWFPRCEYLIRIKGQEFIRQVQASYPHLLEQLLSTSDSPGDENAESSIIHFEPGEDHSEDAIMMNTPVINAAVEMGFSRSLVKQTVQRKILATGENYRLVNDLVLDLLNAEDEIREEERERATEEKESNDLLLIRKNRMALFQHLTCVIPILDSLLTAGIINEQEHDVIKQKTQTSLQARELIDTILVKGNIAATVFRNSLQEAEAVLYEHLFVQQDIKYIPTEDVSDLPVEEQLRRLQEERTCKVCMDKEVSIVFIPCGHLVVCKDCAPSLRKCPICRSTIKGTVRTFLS
T2 sequence (Q96SW2 whole entry, looked up): as the sequence (Q96SW2 whole entry, looked up) above
Sequence of Baculoviral IAP repeat-containing protein 2 (Homo sapiens) (Q13490 whole entry): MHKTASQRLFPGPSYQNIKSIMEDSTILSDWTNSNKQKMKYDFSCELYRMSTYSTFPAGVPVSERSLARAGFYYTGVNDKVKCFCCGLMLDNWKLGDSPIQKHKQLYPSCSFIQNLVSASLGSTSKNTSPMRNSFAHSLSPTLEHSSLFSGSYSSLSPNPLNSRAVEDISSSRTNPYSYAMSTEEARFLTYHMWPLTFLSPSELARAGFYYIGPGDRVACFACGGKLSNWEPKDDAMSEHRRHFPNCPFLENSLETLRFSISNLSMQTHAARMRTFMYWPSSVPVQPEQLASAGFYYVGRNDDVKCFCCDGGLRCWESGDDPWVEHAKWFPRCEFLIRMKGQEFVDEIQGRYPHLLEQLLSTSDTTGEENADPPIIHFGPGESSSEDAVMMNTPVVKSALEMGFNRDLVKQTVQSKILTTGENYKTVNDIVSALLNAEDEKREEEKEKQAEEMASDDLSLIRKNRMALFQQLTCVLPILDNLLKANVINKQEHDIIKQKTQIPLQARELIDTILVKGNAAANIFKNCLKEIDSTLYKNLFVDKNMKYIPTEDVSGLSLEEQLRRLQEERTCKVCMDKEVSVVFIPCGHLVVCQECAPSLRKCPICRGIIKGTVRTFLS
Sequence of Protein cereblon-IAP (Homo sapiens) (P98170 whole entry, looked up): as the sequence (P98170 whole entry, looked up) above
Sequence of Protein cereblon-IAP (Homo sapiens) (Q13489 whole entry, looked up): as the sequence (Q13489 whole entry, looked up) above
Sequence of Protein cereblon-IAP (Homo sapiens) (Q13490 whole entry, looked up): as the sequence (Q13490 whole entry) above
Sequence of Protein cereblon-IAP (Homo sapiens) (Q96SW2 whole entry, looked up): as the sequence (Q96SW2 whole entry, looked up) above

As for `CN[C@@H](C)C(=O)N[C@H](C(=O)N1Cc2cc(OCCCCCCCCNC(=O)C3CN(c4ccc5c(c4)C(=O)N(C4CCC(=O)NC4=O)C5=O)C3)ccc2C[C@H]1C(=O)N[C@@H]1CCCc2ccccc21)C(C)(C)C` (stereo not given in full), the outcome (in experiment [1]; in experiment [3]; in experiment [4]; with MCF7 [10]; in experiment [12]; in [13]) was Active. The inhibition result in the experiment with MDA-MB-157, in the experiment on MDA-MB-231, in the experiment with MCF7 [8] and in the experiment on MCF7 [11] was “Active” in each case. The Activity is > 90% in experiment [2], 99% in experiment [5], 90% in experiment [6] and 46% in the experiment with MCF7 [9]. For the same molecule, the fold change (FC) in [7] was > 2.

The values above are taken from ChEMBL document CHEMBL5344409, “Discovery of pan-IAP degraders via a CRBN recruiting mechanism” (2023).
